Measured values from patent US8691256B2, “Pest control compositions and methods” (Tyratech, Inc., priority 2008, dated 2014).
pKd: −log10 of the molar value. Where two headings read alike, the source gives them in different places.

How the values were obtained:
Aedes aegypti = assay: Pesticidal effect (KD) against Aedes aegypti; type: in vivo
Protocol: With reference to FIG. 4A, the pesticidal effect against Aedes aegypti was determined for Blend 19 (labeled “HL1”, exemplified in Ingredient Family 15 in Table 6) and the composition including clothianidin (CL) and Blend 19.
Similarly, with reference to FIG. 4B, the pesticidal effect against Aedes aegypti was determined for Blend 19 (labeled “HL1”) and the composition including CL and Blend 19.
Similarly, with reference to FIG. 4C, the pesticidal effect against Aedes aegypti was determined for Blend 19 (labeled “HL1”) and the composition including Imidacloprid and Blend 19.
With reference to FIG. 5, the pesticidal effect against Aedes aegypti was determined for Blend 11 (labeled “B5028”, exemplified in Ingredient Family 2 in Table 6) and the composition including Imidacloprid (labeled “I”) and B5028.

Periplaneta americana = assay: Pesticidal effect (mortality) against Periplaneta americana; type: in vivo; conditions: 30 minutes post-treatment, Blend 19 5%
Protocol: With reference to FIG. 6A, the pesticidal effect against Periplaneta americana was determined for Blend 19 (labeled “HL1”, exemplified in Ingredient Family 15 in Table 6) and the composition including clothianidin (CL) and Blend 19.
With reference to FIG. 6B, the pesticidal effect against Periplaneta americana was determined for Blend 19 (labeled “HL1”) and the composition including Imidacloprid and Blend 19.

[1] = system: Blattella germanica (German cockroaches); assay: Pesticidal effect against German cockroaches (knock down and 100% kill time); type: in vivo
Protocol: With reference to Table 9, the pesticidal effect against Blattella germanica (German cockroaches) was determined for DM, Blend 12 (exemplified in Ingredient Family 9 of Table 6), and the composition including deltamethrin (DM) and Blend 12.
Similarly, with reference to Table 10, the pesticidal effect against German cockroaches was determined for deltamethrin (DM), Blend 7 (exemplified in Ingredient Family 5 of Table 6), and the composition including DM and Blend 7.

Drosphila melanogaster = assay: Toxicity against Drosphila melanogaster by direct spray onto flies; type: in vivo, Drosophila melanogaster; conditions: 30 flies per composition, Fipronil 20 ppm, Blend 19 0.5 μg/fly, combination 0.5 μg Blend 19 + 20 ppm fipronil
Protocol: With reference to Table 14, the pesticidal effect against drosphila melanogaster was determined for Blend 19 and the composition including fipnoril and Blend 19. The composition of Blend 19 is also exemplified in Ingredient Family 15 of Table 6. Each composition was tested on 30 drosphila melanogaster by spraying directly onto the flies. Treatment with acetone as control at 0.5 μl/fly killed 2 flies, fipnoril alone at 20 ppm killed 12 flies, and Blend 19 alone at 0.5 μg/fly killed 10 flies. However, treatment with fipronil at 20 ppm combined with Blend 19 at 0.5 μg/fly killed all of the 30 flies.

Drosophila sp. = assay: Pesticidal effect (KD) against Drosophila sp.; type: in vivo; conditions: 30 seconds post-treatment; Imidacloprid 50 ppm; Blend 19 2.5%; combination 50 ppm + 2.5% (FIG. 4D)
Protocol: Similarly, with reference to FIG. 4D, the pesticidal effect against Drosophila sp. was determined for Blend 19 (labeled “HL1”) and the composition including Imidacloprid and Blend 19.

thrips = assay: Knockdown and mortality of thrips; type: in vivo
Protocol: Thrips were exposed to three different groups of compositions. Both knockdown (KD) and mortality were measured at indicated time intervals. Knockdown of target pests is measured in a plexilglass chamber at indicated intervals. Mortality of target pests is measured in cylindrical polyethylene containers with 10% sucrose pads. The mortality value is based on a combination of dead and moribund pests over the total number of pests initially released.
Thrips were exposed to three different groups of compositions. […] The composition of Blend 8 is exemplified in Ingredient Family 21 in Table 6.
Thrips were exposed to three different groups of compositions. […] Blend 38 (label “B5049” and “TT 1A”) is exemplified in Ingredient Family 12 in Table 6.

adult green peach aphids = assay: Greenhouse spray test against adult green peach aphids; type: in vivo; conditions: imidacloprid in water at 100 ppm; three days after spraying
Description: Adult green peach aphids were observed and counted on the plants in a greenhouse. Then different compositions were sprayed directly onto the plants with aphids. Three days after the composition was applied, aphids were counted again to evaluate the pesticidal effects of the composition.

tyramine receptor (TyrR) = target: T1, tyramine receptor (TyrR) (Drosophila melanogaster, UniProt P22270); assay: 3H-tyramine saturation and inhibition binding to membranes of Schneider cells expressing tyramine receptor; conditions: for efficiency at displacing ^3H-tyramine binding: compared with tyramine
T1 construct: oligonucleotides that are used to amplify the open reading frame of the Drosophila tyramine receptor (TyrR); expressed in transfected cells; whole cells or crude membrane fractions
T1 sequence (P22270 27-601): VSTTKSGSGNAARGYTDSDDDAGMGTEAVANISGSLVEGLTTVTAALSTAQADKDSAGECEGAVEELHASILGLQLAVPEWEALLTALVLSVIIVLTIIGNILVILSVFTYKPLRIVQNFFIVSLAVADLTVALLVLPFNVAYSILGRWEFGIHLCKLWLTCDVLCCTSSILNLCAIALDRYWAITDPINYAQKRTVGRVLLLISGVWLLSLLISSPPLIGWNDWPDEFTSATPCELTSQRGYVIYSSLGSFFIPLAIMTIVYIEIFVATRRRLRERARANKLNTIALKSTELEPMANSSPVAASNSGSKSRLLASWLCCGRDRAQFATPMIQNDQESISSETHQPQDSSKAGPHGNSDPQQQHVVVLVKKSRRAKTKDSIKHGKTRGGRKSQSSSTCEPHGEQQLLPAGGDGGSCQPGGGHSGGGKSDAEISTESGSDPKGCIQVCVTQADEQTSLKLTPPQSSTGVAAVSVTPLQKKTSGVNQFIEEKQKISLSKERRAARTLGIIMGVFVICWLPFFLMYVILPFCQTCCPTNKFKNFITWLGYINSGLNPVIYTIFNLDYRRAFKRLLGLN

tyramine receptor = target: T2, tyramine receptor (Drosophila melanogaster, UniProt P22270); assay: Whole cell 3H-tyramine binding/uptake in transfected Schneider cells
T2 construct: oligonucleotides that are used to amplify the open reading frame of the Drosophila tyramine receptor (TyrR); expressed in transfected cells; whole cells or crude membrane fractions
T2 sequence (P22270 27-601): T1 sequence (P22270 27-601)
Description: For transfection, Drosophila Schneider cells are stably transfected with pAc5(B)-TyrR ORF using the calcium phosphate-DNA coprecipitation protocol as described by Invitrogen Drosophila Expression System (DES) manual. The precipitation protocol is the same for either transient or stable transfection except for the use of an antibiotic resistant plasmid for stable transfection. At least about ten clones of stably transfected cells are selected and separately propagated. Stable clones expressing the receptors are selected by whole cell binding/uptake using ^3H-tyramine. […] Nonspecific binding is determined by including about 50 μM unlabeled-tyramine in the reaction. Binding is quantified counting radioactivity using a using a Liquid Scintillation β-counter (Beckman, Model LS1801). […]
Cells transfected with the tyramine receptor (about 1×10^6 cells/ml) are cultured in each well of a multi-well plate. […] Solubilized cells are transferred into about 4 ml Liquid Scintillation Solution (LSS) and vigorously vortexed for about 30 sec before counting the radioactivity using a Liquid Scintillation β-counter (Beckman, Model LS1801) (LSC).
Receptor specific binding data is expressed as fmol specific binding per 1×10^6 cells and measured as a function of ^3H-tyramine concentration. […]

[2] = Thrips, 24 h, read-out: mortality of the thrips
[3] = imidacloprid alone at 1 ppm, till the end of the experiment at 24 hours post treatment
[4] = imidacloprid alone at 10 ppm, till the end of the experiment at 24 hours post treatment
[5] = saturation binding to membranes of Schneider cells expressing tyramine receptor

CN/C(=N\[N+](=O)[O-])NCc1cnc(Cl)s1 [CL, clothianidin]
KD of the target insect (Aedes aegypti; CL alone at 250 ppm (FIG. 4B)): no KD | KD of the target insect (Aedes aegypti; CL alone at 500 ppm (FIG. 4A)): no KD | mortality of the target insect (Periplaneta americana; CL 0.05%, combination 0.05% + 5% (FIG. 6A)): no mortality

CC1(C)[C@H](C(=O)O[C@H](C#N)c2cccc(Oc3ccccc3)c2)[C@@H]1C=C(Br)Br [DM, deltamethrin]
100% Kill ([1]; Table 9: DM 0.037 mg/cm^2, Blend 12 1.9 mg/cm^2): 15 min | 100% Kill ([1]; Table 10: DM 0.037 mg/cm^2): 12 min

N#Cc1nn(-c2c(Cl)cc(C(F)(F)F)cc2Cl)c(N)c1[S+]([O-])C(F)(F)F (centres unmarked) [Fipronil]
# of Flies Killed (Drosphila melanogaster): 12/30 | # of Flies Killed (Drosphila melanogaster; listed as fipnoril): 12

O=[N+]([O-])NC1=NCCN1Cc1ccc(Cl)nc1 [Imidacloprid]
KD of the target insect (Aedes aegypti; 30 seconds post-treatment, Imidacloprid 250 ppm, Blend 19 2.5%, combination 250 ppm + 2.5% (FIG. 4C)): 20% | KD of the target insect (Aedes aegypti; Imidacloprid 500 ppm, B5028 5%, combination 500 ppm + 5% (FIG. 5)): no KD | KD of the target insect (Drosophila sp.): 0% | mortality of the target insect (Periplaneta americana; Imidacloprid alone at 0.05%, 0.033% and 0.01%, combination Imidacloprid 0.033% + 5% Blend 19 (FIG. 6B)): no mortality | mortality at 100 ppm (thrips; Thrips, 2 h, read-out: mortality of the thrips): 10% | mortality at 100 ppm (thrips; Thrips, 4 h, read-out: mortality of the thrips): 20% | mortality at 50 ppm (thrips; [2]): 50% | mortality at 100 ppm (thrips; [2]): 40% | KD of the thrips (thrips; [3]): no KD | mortality of the thrips (thrips; [3]): no mortality | KD of the thrips (thrips; [4]): no KD | mortality of the thrips (thrips; [4]): no mortality | KD of the thrips (thrips; imidacloprid alone at 20 ppm, 24 hours post treatment): 12% | mortality of the thrips (thrips; imidacloprid alone at 20 ppm, till the end of the experiment at 24 hours post treatment): no mortality | KD of the thrips (thrips; imidacloprid alone at 50 ppm, 24 hours post treatment): 100% | KD of the thrips (thrips; imidacloprid alone at 100 ppm, 2 hours post treatment): 10% | KD of the thrips (thrips; imidacloprid alone at 100 ppm, 4 hours post treatment): 20% | KD of the thrips (thrips; imidacloprid alone at 100 ppm, 24 hours post treatment): 80% | change in aphid numbers (adult green peach aphids): No changes in aphid numbers

NCC(O)c1ccc(O)cc1 (centres unmarked) [Octopamine]
rank order of potency (Ki and EC50) (tyramine receptor (TyrR)): tyramine>octopamine>dopamine>serotonin | efficiency at displacing ^3H-tyramine binding (tyramine receptor (TyrR)): less efficient than tyramine

NCCc1ccc(O)cc1 [Tyramine (TA), Tyramine]
rank order of potency (Ki and EC50) (tyramine receptor (TyrR)): tyramine>octopamine>dopamine>serotonin | response of untransfected cells (tyramine receptor; concentrations as high as about 100 μM): do not respond

NCCc1ccc(O)cc1 [^3H-tyramine]
Bmax (tyramine receptor (TyrR); [5]): about 0.679 pmol/mg protein | pKd (tyramine receptor (TyrR); [5]): ~8.90 | ^3H-tyramine concentration at which maximum specific binding occurs (tyramine receptor; whole transfected cells): about 5 nM

NCCc1ccc(O)c(O)c1 [dopamine, Dopamine]
rank order of potency (Ki and EC50) (tyramine receptor (TyrR)): tyramine>octopamine>dopamine>serotonin | efficiency at displacing ^3H-tyramine binding (tyramine receptor (TyrR)): less efficient than tyramine
